Measurements taken from patent US11291947B2, “Composition for removing sulfur-containing compound” (KURARAY CO., LTD., priority 2016, dated 2022).
Like-named read-outs stand apart in the source and are kept apart here.

Legend:
[1] = Hydrogen sulfide removal in kerosene (three-neck flask); details: 20 g kerosene, 1.5 g added, room temperature, 5 hours
Description: 20 g of kerosene (available from FUJIFILM Wako Pure Chemical Corporation) was put into a 50-mL three-neck flask, and a mixed gas having a composition of 1 vol % of hydrogen sulfide and 99 vol % of nitrogen was made to circulate therein at a flow rate of 50 mL/min to thereby purge the vapor in the three-neck flask with stirring at 800 rpm. After 2 hours, the circulation of the mixed gas was stopped, then the three-neck flask was sealed up, and the hydrogen sulfide concentration in the vapor phase part in the three-neck flask was measured with a Kitagawa gas detector and was 8,200 ppm by volume. Next, 1.5 g of SAL was added thereto and reacted for 5 hours at room temperature with stirring the apparatus at 800 rpm. After the reaction, the hydrogen sulfide concentration in the vapor phase part in the three-neck flask was measured and was 5,300 ppm by volume. The removal rate was 35%.
After the reaction, the hydrogen sulfide concentration in the vapor phase part in the three-neck flask was measured and was 6,600 ppm by volume. The removal rate was 20%.

[2] = test system: Rat; details: versus acrolein; cited from earlier work
[3] = cited from earlier work
[4] = Hydrogen sulfide removal in distilled water (autoclave); details: distilled water, 5,000 ppm added, 80° C., 5 hours
Description: 20 g of distilled water was put into a 100-mL autoclave equipped with a thermometer and a stirrer, and pressurized up to 0.3 MPa with a mixed gas having a composition of 1 vol % of hydrogen sulfide and 99 vol % of nitrogen introduced thereinto. This was stirred until the hydrogen sulfide concentration in the vapor phase part became constant, and then the hydrogen sulfide concentration in the vapor phase part in the autoclave was measured with a Kitagawa gas detector (here, a […] available from Komyo Rikagaku Kogyo K.K. was attached to the gas collector “AP-20”), and was 7,500 ppm by volume. Next, SAL was added thereto in an amount to be 5,000 ppm relative to the distilled water. The amount of SAL added was 1.19 mmol, and the amount of hydrogen sulfide existing in the apparatus was 0.10 mmol. Subsequently, the apparatus was heated up to 80° C. with stirring at 800 rpm to continue the reaction for 5 hours. After the reaction, the system was cooled down to room temperature, and the hydrogen sulfide concentration in the vapor phase part was measured and was 5,000 ppm by volume. The removal rate was 33%.
The same test as in Example 2 was carried out except that acrolein was used in place of SAL. After the reaction, the hydrogen sulfide concentration in the vapor phase part was measured and was 5,000 ppm by volume. The removal rate was 33%.

[5] = format: physicochemical
Description: 50 mL of each of SAL and acrolein was charged in 50-mL three-necked flask, and the contents were subjected to temperature rise to 50° C. in a nitrogen atmosphere. On the occasion when the content of each of SAL and acrolein immediately after the temperature rise was defined as 100%, a change of the content ratio was observed according to the calibration curve method by means of gas chromatography with an internal standard.
[Gas Chromatography Analysis]
Analysis Instrument: GC-14A (Available from Shimadzu Corporation) Detector: FID (Hydrogen Flame Ionization Detector)
Column used: DB-1701 (length: 50 m, film thickness: 1 μm, inner diameter: 0.32 mm) (available from Agilent Technologies)
Analysis conditions: Injection temperature: 250° C., detection temperature: 250° C.
Temperature rise conditions: 70° C.→(temperature rise at 5° C./min)→250° C.
Internal standard substance: Diglyme (diethylene glycol dimethyl ether)

[6] = format: physicochemical; details: pH 1.7
Description: Each of SAL and acrolein was dissolved in 0.5 mol/L of phosphoric acid buffer solutions having a pH different from each other, thereby preparing 0.1 wt % solutions. 50 mL of each of the solutions was charged in a sample vial in a nitrogen atmosphere and stored at 23±2° C. On the occasion when the content of each of SAL and acrolein at the time of preparation was defined as 100%, a change of the content ratio was observed according to the absolute calibration curve by means of high-performance liquid chromatography analysis.
[Preparation of Phosphoric Acid Buffer Solution]
pH 1.7: 4.9 g of 75% phosphoric acid and 7.8 g of sodium dihydrogen phosphate dihydrate were dissolved in 200 mL of distilled water.
pH 6.2: 7.8 g of sodium dihydrogen phosphate dihydrate and 7.1 g of disodium hydrogen phosphate were dissolved in 200 mL of distilled water.
pH 8.1: 0.3 g of sodium dihydrogen phosphate dihydrate and 13.9 g of disodium hydrogen phosphate were dissolved in 200 mL of distilled water.
[High-Performance Liquid Chromatography Analysis]
Analysis Instrument: Prominence System (Available from Shimadzu Corporation)
Column used: Cadenza CD-C18 (length: […], inner diameter: 4.6 mm)
Developing solution: H2O/MeOH=45/55 (volume ratio), H3PO4=1 mol/L

[7] = 50° C., nitrogen atmosphere, 0 hour (defined as 100%)
[8] = 50° C., nitrogen atmosphere, 2 hours elapsed
[9] = 50° C., nitrogen atmosphere, 4 hours elapsed
[10] = 50° C., nitrogen atmosphere, 6 hours elapsed
[11] = 50° C., nitrogen atmosphere, 10 hours elapsed

CC(C)=CCCC(C)=CC=O [Citral, 3,7-dimethyl-2,6-octadienal]
removal rate [1]: 20%
toxicity and safety (comparison in words) [2]: extremely low in the toxicity and safe as compared with acrolein

C=CC=O [Acrolein, acrolein, reference compound]
Fire Service Act water solubility class [3]: water-insoluble
removal rate [4]: 33%
content ratio [5, 7]: 100.0%
content ratio [5, 8]: 99.5%
content ratio [5, 9]: 98.3%
content ratio [5, 10]: 98.1%
content ratio [5, 11]: 96.6%
ratio lost ([5]; 50° C., nitrogen atmosphere, after 10 hours): 3.4%

CC(C)=CC=O [SAL, 3-methyl-2-butenal]
removal rate [1]: 35%
pH stability (comparison in words) [6]: extremely high in the pH stability as compared with acrolein
Fire Service Act water solubility class [3]: water-insoluble
toxicity and safety (comparison in words) [2]: extremely low in the toxicity and safe as compared with acrolein
removal rate [4]: 33%
thermal stability (comparison in words) [5]: extremely high in the thermal stability as compared with acrolein
content ratio [5, 7]: 100.0%
content ratio [5, 8]: 100.0%
content ratio [5, 9]: 100.0%
content ratio [5, 10]: 100.0%
content ratio [5, 11]: 99.9%
